Results reported in patent US9204653B2, “5-fluoro pyrimidine derivatives” (DOW AGROSCIENCES LLC, priority 2008, dated 2015).

Experiments:
[1] = tested on: Mycosphaerella graminicola; Anamorph: Septoria tritici; Bayer Code SEPTTR; assay: Leaf blotch of wheat, foliar fungicide treatment, one day protectant (1DP) or three day curative (3DC); format: in vivo, Septoria tritici on wheat plants (variety Yuma); conditions: Zymoseptoria tritici, 24 h, % disease control rating, one day protectant
[2] = tested on: Cercospora beticola; Bayer Code CERCBE; assay: Leaf spot of sugar beets; format: in vivo, Cercospora beticola on sugar beets (variety HH-88); conditions: 24 h, % disease control rating, one day protectant; for pest or weed control at 25 ppm: read-out: CERCBE 1 DP 25 ppm; for pest or weed control at 75 ppm: read-out: CERCBE 1 DP 75 ppm
[3] = tested on: Venturia inaequalis; Bayer Code VENTIN; assay: Apple scab; format: in vivo; conditions: 24 h, % disease control rating, one day protectant; for pest or weed control at 25 ppm: read-out: VENTIN 1 DP 25 ppm; for pest or weed control at 75 ppm: read-out: VENTIN 1 DP 75 ppm

SMILES	pest or weed control at 50 ppm [1]	pest or weed control at 200 ppm [1]	pest or weed control at 25 ppm [2]	pest or weed control at 75 ppm [2]	pest or weed control at 25 ppm [3]	pest or weed control at 75 ppm [3]
Fc1cnc(OCc2cccs2)nc1NCc1ccc2c(c1)OCO2 [Compound 804]	26 to 50%	51 to 75%	0 to 25%	0 to 25%	0 to 25%	0 to 25%
Fc1cnc(OCc2cccs2)nc1N1CCOCC1 [Compound 845]	76 to 100%	76 to 100%	0 to 25%	0 to 25%	26 to 50%	26 to 50%
Cc1cnc(CNc2nc(OCc3ccco3)ncc2F)cn1 [Compound 849]	76 to 100%	76 to 100%	26 to 50%	26 to 50%	76 to 100%	51 to 75%
Fc1cnc(OC2CCCCC2)nc1NCc1ccc(Cl)nc1 [Compound 858]	0 to 25%	26 to 50%	26 to 50%	26 to 50%	26 to 50%	0 to 25%
Fc1cnc(OCc2ccc(OC(F)(F)F)cc2)nc1NCc1cccs1 [Compound 860]		76 to 100%	0 to 25%	26 to 50%	26 to 50%	51 to 75%
Fc1ccccc1CNc1nc(OCC(F)(F)F)ncc1F [Compound 894]	0 to 25%	0 to 25%	0 to 25%	0 to 25%	0 to 25%	26 to 50%
Nc1nc(OCCn2cncn2)ncc1F [Compound 933]	26 to 50%	51 to 75%	26 to 50%	26 to 50%	0 to 25%	26 to 50%
Fc1cnc(OC2CCCCC2)nc1N1CCOCC1 [Compound 941]	0 to 25%	0 to 25%	0 to 25%	0 to 25%	51 to 75%	26 to 50%
Fc1cnc(OCc2ccccn2)nc1NC1CC1 [Compound 952]		26 to 50%	0 to 25%	0 to 25%	0 to 25%	0 to 25%
